Experimental data taken from US12497392B2, “EP300/CBP inhibitor” (HINOVA PHARMACEUTICALS INC., priority 2019, dated 2025).
Read-outs that look alike come from different tables or passages of the source.

Assays:
CWR22RV1 cells [1] = experiment: Proliferation of prostate cancer CWR22RV1 cells (CCK-8, 6 days); format: cell-based
Experimental: (§1) • (1) CWR22RV1 prostate cancer cells were subcultured in cell culture medium, and well-grown cells were inoculated into 96-well plates with 80 μL per well and 1500 cells per well, and then the plate was cultured overnight at 37° C. in a 5% CO2 incubator. • (2) Drug was prepared as 30 mM of stock solution with dimethylsulfoxide (DMSO). Prior to use, the stock solution was diluted in a ratio of 1:3 with DMSO and then further diluted in a ratio of 1:3 to obtain 9 gradient concentrations. Each concentration of compound was diluted in a ratio of 1:200 with culture medium (to ensure the concentration of DMSO in the culture system was 0.1%). Two wells were set for each concentration. 20 μL of diluted compound solution was added to the cell culture well (with a final concentration of 10 μM, 3.3 μM, 1.1 μM, etc.), and then the plate was gently shaken to mix well. In addition, three negative control wells containing only cells and three blank control wells containing only culture medium (6 wells being each added with DMSO diluted in a ratio of 1:200 using 20 μL of culture medium) were included. 2. Test Results: • (1) After the plate was cultured for 6 days, 10 μL of CCK-8 was added to each well, and then the plate was continually cultured in a 5% CO2 incubator at 37° C. for 2.5 h. • (2) The absorbance (OD value) was measured at 450 nm with a microplate reader. • (3) Data were analyzed using the Dose-response-inhibition equation in the software GraphPad Prisms 6 to obtain IC50 values. 3. Experimental Results

EP300 BRD = EP300 BRD (Homo sapiens (Human), UniProt Q09472); experiment: EP300 AlphaScreen bromodomain (BRD) binding test
EP300 BRD, sequence (Q09472 1049-1156): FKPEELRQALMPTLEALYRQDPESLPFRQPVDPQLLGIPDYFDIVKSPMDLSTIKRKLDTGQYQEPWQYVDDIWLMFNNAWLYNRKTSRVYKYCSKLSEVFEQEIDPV
Experimental: (§2) CBP and EP300AlphaScreen Test:
(§3) • 1. Prepare 1× concentration of test buffer • 2. Preparation of compound
(§4) The compound was firstly diluted in a ratio of 1:1000 relative to the final concentration using a Precision automatic sampler (by 3× gradient dilution method): • 1) 50 μL of compound solution with a storage concentration of 10 mM was transferred to A2 well of a 96-well plate using an Echo automatic sampler. • 2) 30 μL of DMSO was transferred to well A1, and wells A3 to A12 with Precision™. • 3) 15 μL solution was transferred from A2 to A3 by Precision, and this operation was sequentially repeated until 15 μL solution was transferred from well A10 to well A11. Thus, a 1:3 gradient dilution was completed. • 4) The compound plate was centrifuged at a speed of 1000 r/min for one minute. • 3. Preparation of test plate
(§5) 20 nL of solution was transferred from each concentration well of the compound plate to the test plate using an Echo automatic sampler: from well A1 of the preparation plate to wells A1 and A2 of the test plate, and from well A2 of the preparation plate to wells A3 and A4 of the test plate. • 4. Binding test of bromodomain (BRD) • 1) Preparation of 2-fold solution of protein and polypeptide
(§6) The protein and polypeptide were dissolved in a 1× concentration of detection buffer. • 2) 10 μL of protein and polypeptide solution was transferred to each well in columns 3 to 24 in the test plate, and 10 μL of 1× test buffer was transferred to wells in columns 1 to 2 in the test plate as negative control. • 3) The test plate was centrifuged at a speed of 1000 r/min for one minute. • 4) The test plate was incubated at room temperature for 15 min. • 5) A 2-fold receptor and donor solution was prepared by dissolving acceptor and donor beads with one-fold test buffer. • 6) 2-fold receptor and donor solutions were transferred to the test plate.
(§7) 15 μL of acceptor and donor solution was added and light was avoided. • 7) The test plate was centrifuged at a speed of 1000 r/min for one minute and then incubated at room temperature for 60 min. • 5. The Endpoints were Read in EnSpire and Alpha Modes. • 6. Curve fitting
(§8) The experimental data was entered into an Excel document and the inhibition rate Inh % was calculated using equation (1): Inh %=(Max−Signal)/(Max−Min)×100 Equation (1): wherein, Max: control containing DMSO, Min: low control containing DMSO,
(§9) The obtained data were entered into the XL-Fit software, and the IC50 value was calculated using equation (2): Y=Bottom+(Top−Bottom)/(1+10^((Log IC50−X)×Hill Slope)) Equation (2): II. Experimental Results

CBP BRD = CBP BRD (Homo sapiens (Human), UniProt Q92793); experiment: CBP AlphaScreen bromodomain (BRD) binding test
CBP BRD, sequence (Q92793 1085-1192): as the sequence (Q09472 1049-1156) above, with S47N, I73V, Y93F, S98A counted along it
Experimental: as §2, §3, §4, §5, §6, §7, §8, §9

MCF-7 = experiment: Proliferation of MCF-7 breast cancer cells (CCK-8); format: cell-based; details: breast cancer cell line MCF-7, read-out: IC50 against MCF-7
Experimental: as §1
(§10) Using the same method as in Example 2, CWR22RV1 cells were replaced with tumor cells in Table 3, and for the inhibitory activities against these tumor cells, the IC50 values (nM) of the compounds according to the present invention were tested and calculated.

VCAP = experiment: Proliferation of VCAP prostate cancer cells (CCK-8); format: cell-based; details: prostate cancer cell line VCAP, read-out: IC50 against VCAP
Experimental: as §1, §10

MOLM-16 = experiment: Proliferation of MOLM-16 leukemia cells (CCK-8); format: cell-based; details: leukemia cell line MOLM-16, read-out: IC50 against MOLM-16
Experimental: as §1, §10

OPM-2 = experiment: Proliferation of OPM-2 multiple myeloma cells (CCK-8); format: cell-based; details: multiple myeloma cell line OPM-2, read-out: IC50 against OPM-2
Experimental: as §1, §10

LNCAP = experiment: Proliferation of LNCAP prostate cancer cells (CCK-8); format: cell-based; details: prostate cancer cell line LNCAP, read-out: IC50 against LNCAP
Experimental: as §1, §10

LNCAP-AR = experiment: Proliferation of LNCAP-AR prostate cancer cells (CCK-8); format: cell-based; details: prostate cancer cell line LNCAP-AR; read-out: IC50 against LNCAP-AR
Experimental: as §1, §10

CWR22RV1 cells [2] = experiment: Combination with CDK4/6 inhibitor palbociclib, proliferation of CWR22RV1 prostate cancer cells; format: cell-based; details: for IC50: read-out: IC50 against CWR22RV1 cells
Experimental: (§11) Prior to use, the stock solution was diluted in a ratio of 1:3 with DMSO and then further diluted in a ratio of 1:3 to obtain 9 gradient concentrations. Each concentration of compound was diluted in a ratio of 1:200 with culture medium (to ensure the concentration of DMSO in the culture system was 0.1%). Two wells were set for each concentration. 20 μL of diluted compound solution was added to the cell culture well (with a final concentration of 10 μM, 3.3 μM, 1.1 μM, etc.); the stock solution of palbociclib was diluted with the culture medium as 500 nM, 150 nM, 50 nM, 5 nM, respectively, and then 20 μL of diluted palbociclib solution was added to the cell culture well ([…]). The plate was gently shaken to mix well. In addition, three negative control wells containing only cells and three blank control wells containing only culture medium (6 wells being each added with DMSO diluted in a ratio of 1:200 using 20 μL of culture medium) were included. 2. Test Results: • (1) After the plate was cultured for 6 days, 10 μL of CCK-8 was added to each well, and then the plate was continually cultured in a 5% CO2 incubator at 37° C. for 2.5 h. • (2) The absorbance (OD value) was measured at 450 nm with a microplate reader. • (3) Data were analyzed using the Dose-response-inhibition equation in the software GraphPad Prisms 6 to obtain IC50 values. 3. Experimental Results

MCF-7 cells = experiment: Combination with CDK4/6 inhibitor palbociclib, proliferation of MCF-7 breast cancer cells; format: cell-based; details: for IC50: Homo sapiens, read-out: IC50 against MCF-7 cells
Experimental: as §11
Using the same method as in Example 4, CWR22RV1 cells were replaced with MCF-7 cells, and for the inhibitory activities against the proliferation of MCF-7 cells, the IC50 values (nM) of the compounds according to the present invention, palbociclib, and the combination of the compound according to the present invention and palbociclib were tested and calculated.

[3] = CWR22Rv1, 144 h, 6 days, CCK-8, class symbols, read-out: IC50 against CWR22RV1 cells
[4] = compound 172 + palbociclib, in words

| Molecule | IC50 (CWR22RV1 cells [1]; [3]) [nM] | IC50 (EP300 BRD) [nM] | IC50 (CBP BRD) [nM] | IC50 (MCF-7; Homo sapiens, MCF7) [nM] | IC50 (VCAP; Homo sapiens) [nM] | IC50 (MOLM-16; MOLM16) [nM] | IC50 (OPM-2; Homo sapiens) [nM] | IC50 (LNCAP; Homo sapiens) [nM] | IC50 (LNCAP-AR) [nM] | other results |
| --- | --- | --- | --- | --- | --- | --- | --- | --- | --- | --- |
| CO[C@H]1CC[C@H](n2c([C@@H]3CCOCC(=O)N3c3ccc(F)c(F)c3)nc3cc(-c4c(C)noc4C)ccc32)CC1 [Compound 106] | 500 to 2000 | 2.2 | 4.8 | – | – | – | – | – | – | – |
| CO[C@H]1CC[C@H](n2c([C@H]3COCC(=O)N3c3ccc(F)c(F)c3)nc3cc(-c4c(C)noc4C)ccc32)CC1 [Compound 112, (S)-4-(3,4-difluorophenyl)-5-(5-(3,5-dimethylisoxazol-4-yl)-1-((trans)-4-methoxycyclohexyl)-1H-benzo[d]imidazol-2-yl)morphine-3-one] | – | 1.7 | 2 | – | – | – | – | – | – | IC50 (CWR22RV1 cells [1]; CWR22Rv1, 144 h, read-out: IC50 against CWR22RV1 cells): < 500 nM; IC50 (CWR22RV1 cells [1]; CWR22Rv1, 144 h, read-out: IC50 against CWR22RV1 prostate cancer cells): < 500 nM |
| CO[C@H]1CC[C@H](n2c([C@@H]3CCOC(=O)N3c3ccc(Cl)c(F)c3)nc3cc(-c4c(C)noc4C)ccc32)CC1 [Compound 117, (S)-3-(3-fluoro-4-chlorophenyl)-4-(5-(3,5-dimethylisoxazol-4-yl)-1-((trans)-4-methoxycyclohexyl)-1H-benzo[d]imidazol-2-yl)-1,3-oxazinane-2-one] | < 500 | 0.73 | 0.71 | < 500 | < 500 | < 500 | < 500 | < 500 | < 500 | IC50 (CWR22RV1 cells [1]; CWR22Rv1, 144 h, 6 days, CCK-8, bound stated, read-out: IC50 against CWR22RV1 prostate cancer cells): < 500 nM |
| COc1cccc(-c2nc3cc(-c4c(C)noc4C)ccc3n2[C@H]2CC[C@H](OC)CC2)c1-c1ccc(F)cc1 [Compound 141] | > 2000 | 9.6 | 22 | – | – | – | – | – | – | – |
| CO[C@H]1C[C@@H](n2c([C@@H]3CCOC(=O)N3c3ccc(F)c(F)c3)nc3cc(-c4c(C)noc4C)ccc32)C1 [Compound 143] | 500 to 2000 | 2.7 | 4.7 | – | – | – | – | – | – | – |
| CCO[C@H]1CC[C@H](n2c([C@@H]3CCOC(=O)N3c3ccc(F)c(F)c3)nc3cc(-c4c(C)noc4C)ccc32)CC1 [Compound 171, (S)-3-(3,4-difluorophenyl)-4-(5-(3,5-dimethylisoxazol-4-yl)-1-((trans)-4-ethoxycyclohexyl)-1H-benzo[d]imidazol-2-yl)-1,3-oxazinane-2-one] | 500 to 2000 | 2.4 | 1.8 | < 500 | < 500 | < 500 | < 500 | < 500 | < 500 | – |
| CCO[C@H]1CC[C@H](n2c([C@@H]3CCOC(=O)N3c3ccc(Cl)c(F)c3)nc3cc(-c4c(C)noc4C)ccc32)CC1 [Compound 172, (S)-3-(4-chloro-3-fluorophenyl)-4-(5-(3,5-dimethylisoxazol-4-yl)-1-((trans)-4-ethoxycyclohexyl)-1H-benzo[d]imidazol-2-yl)-1,3-oxazinane-2-one] | 500 to 2000 | 2.1 | 2.3 | < 500 | < 500 | < 500 | < 500 | < 500 | < 500 | IC50 (CWR22RV1 cells [2]; CWR22Rv1, 172 in combination with 10 nM palbociclib): 26 nM; IC50 (CWR22RV1 cells [2]; CWR22Rv1, 172 in combination with 100 nM palbociclib): < 1 nM; IC50 (CWR22RV1 cells [2]; CWR22Rv1, 172 in combination with 100-300 nM of palbociclib): < 1 nM; IC50 (CWR22RV1 cells [2]; CWR22Rv1, administrated alone): 1500 nM; effect of combination with palbociclib on CWR22RV1 prostate cancer cells (CWR22RV1 cells [2]; [4]): synergistic inhibitory effect; IC50 (MCF-7 cells; MCF7, 172 in combination with 10 nM palbociclib): 27 nM; IC50 (MCF-7 cells; MCF7, 172 in combination with 100 nM palbociclib): 9 nM; IC50 (MCF-7 cells; MCF7, 172 in combination with 300 nM palbociclib): 7 nM; IC50 (MCF-7 cells; MCF7, 172 in combination with 100-300 nM of palbociclib): < 10 nM; IC50 (MCF-7 cells; MCF7, administrated alone): 72 nM; effect of combination with palbociclib on MCF-7 breast cancer cells (MCF-7 cells; [4]): synergistic inhibitory effect |
| CC(=O)c1c(C)c2cnc(Nc3ccc(N4CCNCC4)cn3)nc2n(C2CCCC2)c1=O [palbociclib, reference compound] | – | – | – | – | – | – | – | – | – | IC50 (CWR22RV1 cells [2]; CWR22Rv1, administrated alone): 100 nM; IC50 (MCF-7 cells; MCF7, administrated alone): 12800 nM |
| (S)-4-(3,4-difluorophenyl)-5-(5-(3,5-dimethylisoxazol-4-yl)-1-((trans)-4-deuteromethoxycyclohexyl)-1H-benzo[d]imidazol-2-yl)morphine-3-one [Compound 113] | – | – | – | – | – | – | – | – | < 500 | IC50 (CWR22RV1 cells [1]; 6 days, CCK-8, bound stated, read-out: IC50 against CWR22RV1 prostate cancer cells): < 500 nM; IC50 (CWR22RV1 cells [1]; 6 days, CCK-8, class symbols, read-out: IC50 against CWR22RV1 cells): < 500 nM; IC50 (MCF-7): < 500 nM; IC50 (VCAP): < 500 nM; IC50 (MOLM-16): < 500 nM; IC50 (OPM-2): < 500 nM; IC50 (LNCAP): < 500 nM |
